Test results reported in paper PMC5007552, “The hVps34‐SGK3 pathway alleviates sustained PI3K/Akt inhibition by stimulating mTORC1 and tumour growth” (The EMBO Journal, 2016).
Values joined by “and” are separate entries in the source; they are usually repeats but may differ in a detail not shown here. Identical values can stand only once.

Tested on: ZR-75-1 cells
Assay: NanoString human kinome mRNA quantification
Format: cell-based
Source text: Human mRNAs were hybridised to NanoString human kinome and control code sets, then subjected to quantification using NanoString software. […] To permit data compaction, and simple kinome‐wide comparisons, the fold changes are log2 transformed. […] Cell pellets were resuspended at a concentration of ~6,500 cells/μl in RLT buffer (Qiagen). […] For total copy numbers, triplicate normalised count values were averaged, and to calculate fold induction, means were divided by triplicate mean values from matched DMSO controls. P‐values were calculated using unpaired t‐test (GraphPad Prism software) by employing treated and control count data for each kinase mRNA.

NC1(c2ccc(-c3nc4ccn5c(=O)[nH]nc5c4cc3-c3ccccc3)cc2)CCC1 [MK-2206]
RYK normalised counts (RYK mRNA, single replicates): 1148.59 and 1139.68 and 1120.05 | SBK1 normalised counts, average (SBK1 mRNA, average of 3 replicates): 361.503 | SBK1 normalised counts (SBK1 mRNA, single replicates): 371.43 and 336.09 and 376.99 | SBK2 normalised counts, average (SBK2 mRNA, average of 3 replicates): 1.323 | SBK2 normalised counts (SBK2 mRNA, single replicates): 1.48 and 1 and 1.49 | SCYL1 normalised counts, average (SCYL1 mRNA, average of 3 replicates): 556.557 | SCYL1 normalised counts (SCYL1 mRNA, single replicates): 560.49 and 556.75 and 552.43 | SCYL2 normalised counts, average (SCYL2 mRNA, average of 3 replicates): 1373.8 | SCYL2 normalised counts (SCYL2 mRNA, single replicates): 1302.21 and 1441.13 and 1378.05 | SCYL3 normalised counts, average (SCYL3 mRNA, average of 3 replicates): 629.833 | SCYL3 normalised counts (SCYL3 mRNA, single replicates): 586.85 and 664.48 and 638.17 | SGK1 normalised counts, average (SGK1 mRNA, average of 3 replicates): 34.7533 | SGK1 normalised counts (SGK1 mRNA, single replicates): 45.11 and 34.64 and 24.51 | SGK2 normalised counts, average (SGK2 mRNA, average of 3 replicates): 5.517 | SGK2 normalised counts (SGK2 mRNA, single replicates): 6.93 and 3.37 and 6.25 | SGK3 normalised counts, average (SGK3 mRNA, average of 3 replicates): 345.983 | SGK3 normalised counts (SGK3 mRNA, single replicates): 345.97 and 349.13 and 342.85 | SGK110 normalised counts, average (SGK110 mRNA, average of 3 replicates): 1 | SGK110 normalised counts (SGK110 mRNA, single replicates): 1 | SGK223 normalised counts, average (SGK223 mRNA, average of 3 replicates): 114.123 | SGK223 normalised counts (SGK223 mRNA, single replicates): 115.1 and 115.43 and 111.84 | SGK494 normalised counts (SGK494 mRNA, single replicates): 270.07 and 276.17 | SIK1 normalised counts, average (SIK1 mRNA, average of 3 replicates): 97.7933 | SIK1 normalised counts (SIK1 mRNA, single replicates): 92.37 and 96.32 and 104.69 | SIK2 normalised counts, average (SIK2 mRNA, average of 3 replicates): 489.35 | SIK2 normalised counts (SIK2 mRNA, single replicates): 465.05 and 503.76 and 499.24 | SIK3 normalised counts, average (SIK3 mRNA, average of 3 replicates): 191.663 | SIK3 normalised counts (SIK3 mRNA, single replicates): 213.27 and 183.2 and 178.52 | SLK normalised counts, average (SLK mRNA, average of 3 replicates): 781.283 | SLK normalised counts (SLK mRNA, single replicates): 777.73 and 819.98 and 746.14 | SNRK normalised counts (SNRK mRNA, single replicates): 215.99 and 274.58 | SPEG normalised counts, average (SPEG mRNA, average of 3 replicates): 35.4833 | SPEG normalised counts (SPEG mRNA, single replicates): 26.93 and 40.72 and 38.8 | SRC normalised counts, average (SRC mRNA, average of 3 replicates): 1093.13 | SRC normalised counts (SRC mRNA, single replicates): 1115.87 and 1045.86 and 1117.67 | SRMS normalised counts, average (SRMS mRNA, average of 3 replicates): 3.94 | SRMS normalised counts (SRMS mRNA, single replicates): 1.48 and 2.5 and 7.84 | SRPK1 normalised counts, average (SRPK1 mRNA, average of 3 replicates): 1401.66 | SRPK1 normalised counts (SRPK1 mRNA, single replicates): 1439.46 and 1380.32 and 1385.2 | SRPK3 normalised counts, average (SRPK3 mRNA, average of 3 replicates): 7.937 | SRPK3 normalised counts (SRPK3 mRNA, single replicates): 8.75 and 11.19 and 3.87 | STK3 normalised counts, average (STK3 mRNA, average of 3 replicates): 371.33 | STK3 normalised counts (STK3 mRNA, single replicates): 336.89 and 406.46 and 370.64 | STK10 normalised counts, average (STK10 mRNA, average of 3 replicates): 433.017 | STK10 normalised counts (STK10 mRNA, single replicates): 449.6 and 416.89 and 432.56 | STK11 normalised counts, average (STK11 mRNA, average of 3 replicates): 800.127 | STK11 normalised counts (STK11 mRNA, single replicates): 804.09 and 773.94 and 822.35 | STK16 normalised counts, average (STK16 mRNA, average of 3 replicates): 424.973 | STK16 normalised counts (STK16 mRNA, single replicates): 430.51 and 422.97 and 421.44 | STK17A normalised counts, average (STK17A mRNA, average of 3 replicates): 614.85 | STK17A normalised counts (STK17A mRNA, single replicates): 623.21 and 605.4 and 615.94 | STK17B normalised counts, average (STK17B mRNA, average of 3 replicates): 149.18 | STK17B normalised counts (STK17B mRNA, single replicates): 155.09 and 144.1 and 148.35 | STK19 normalised counts, average (STK19 mRNA, average of 3 replicates): 156.807 | STK19 normalised counts (STK19 mRNA, single replicates): 145.09 and 157.13 and 168.2 | STK24 normalised counts (STK24 mRNA, single replicates): 2291.16 | STK25 normalised counts, average (STK25 mRNA, average of 3 replicates): 893.797 | STK25 normalised counts (STK25 mRNA, single replicates): 868.63 and 899.91 and 912.85 | STK31 normalised counts, average (STK31 mRNA, average of 3 replicates): 2.42 | STK31 normalised counts (STK31 mRNA, single replicates): 2.39 and 1 and 3.87 | STK32A normalised counts, average (STK32A mRNA, average of 3 replicates): 1.637 | STK32A normalised counts (STK32A mRNA, single replicates): 1 and 1.63 and 2.28 | STK32B normalised counts, average (STK32B mRNA, average of 3 replicates): 1.427 | STK32B normalised counts (STK32B mRNA, single replicates): 1 (2×) and 2.28 | STK32C normalised counts, average (STK32C mRNA, average of 3 replicates): 205.643 | STK32C normalised counts (STK32C mRNA, single replicates): 188.41 and 219.8 | STK33 normalised counts, average (STK33 mRNA, average of 3 replicates): 1.163 | STK33 normalised counts (STK33 mRNA, single replicates): 1 (2×) and 1.49 | STK35 normalised counts, average (STK35 mRNA, average of 3 replicates): 342.25 | STK35 normalised counts (STK35 mRNA, single replicates): 336.89 and 343.04 and 346.82 | STK38L normalised counts, average (STK38L mRNA, average of 3 replicates): 664.543 | STK38L normalised counts (STK38L mRNA, single replicates): 674.11 and 657.53 and 661.99 | STK38 normalised counts, average (STK38 mRNA, average of 3 replicates): 732.567 | STK38 normalised counts (STK38 mRNA, single replicates): 697.74 and 733.98 and 765.98 | STK39 normalised counts, average (STK39 mRNA, average of 3 replicates): 817.837 | STK39 normalised counts (STK39 mRNA, single replicates): 763.19 and 842.57 and 847.75 | Normalised counts (single replicate) (VRK3 mRNA): 720.47 and 725.29 and 752.49 | Normalised counts (single replicate) (WEE2 mRNA): 1.48 and 1.63 and 1.49 | Normalised counts (single replicate) (WNK1 mRNA): 3425.55 and 3529.59 and 3400.03 | Normalised counts (single replicate) (WNK2 mRNA): 345.97 and 335.23 and 337.29 | Normalised counts (single replicate) (WNK3 mRNA): 30.56 and 30.3 and 37.21 | Normalised counts (single replicate) (WNK4 mRNA): 5.11 and 1 and 4.66 | Normalised counts (single replicate) (YES1 mRNA): 2809.27 and 2957.96 and 2943.56 | Normalised counts (single replicate) (YSK4 mRNA): 1 (2×) and 1.49 | Normalised counts (single replicate) (ZAK mRNA): 35.11 and 50.28 and 49.91 | Normalised counts (single replicate) (ZAP70 mRNA): 1 (2×) and 1.63 | rank of SGK3 mRNA among AGC kinases (ZR-75-1, DMSO vehicle 29th): 12
